Test system: GUMC-403
Test: viability at highest tested concentration (max response) relative to DMSO (% of DMSO control); higher = less cytotoxic
Conditions: library / dose series: MIPE library, 11-point 1:3 dilution, 48 h
Summary of the method: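 Plates of 1536 wells were seeded with 700 patient-derived GUMC-403 papilloma cells per well, grown by conditional reprogramming, in 5 μL F + Y medium and kept overnight at 37 °C. Compounds followed at 23 nL by pin tool over an 11-point 1:3 series, for 48 h. After a CellTiter-Glo luminescence read on a ViewLux, signals were set against vehicle wells as 100% and empty wells as 0%. The reported number is viability at the highest tested concentration relative to vehicle control.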

SMILES | viability (top concentration 46.1 µM) | further results
O=C([O-])Cc1ccccc1Nc1c(Cl)cccc1Cl | 104 | 
NC1=C(Cl)C(=CC=N1)OC2=C(F)C=C(NC(=O)\C3=C\N\C=C(C3=O)\C4=CC=C(F)C=C4)C=C2 | 108 | 
CCCCCNC(=N)N/N=C/c1c[nH]c2ccc(OC)cc12 | 69.6 | 
Cc1cnc(NC(=O)Nc2cc(Br)c(C)cc2OC[C@@H]2CNCCO2)cn1 | 110 | 
COC1=CC2=C(C=C1CC3=C(F)C(=CC=C3)Cl)C(=O)\C(=C/N2[C@H](CO)C(C)C)C(O)=O | 124 | 
C#Cc1cccc(Nc2ncnc3cc(OC)c(OCCCCCCC(=O)NO)cc23)c1 | 33.9 | 
CN(CCOc1ccc(NS(C)(=O)=O)cc1)CCc1ccc(NS(C)(=O)=O)cc1 | 127 | 
NC(=O)c1cccc(-c2cc(Nc3ccc(OC(F)(F)F)cc3)ncn2)c1 | 117 | 
COc1ccc(CCN2CCN(CCCc3ccccc3)CC2)cc1OC | 120 | 
C#Cc1cccc(Nc2ncnc3cc(OCCOC)c(OCCO)cc23)c1 | 47.5 | 
N=C(N)NC(=N)N1CCOCC1 | 132 | 
O=C1C[C@@H](c2ccc(O)cc2)Oc2cc(O)cc(O)c21 | 113 | 
CCNC(=O)C[C@H]1/N=C(/C2=CC=C(Cl)C=C2)C3=CC(=CC=C3[N]4C(=NN=C14)C)OC | 93.5 | 
Cc1cccc(-c2nn(C(=S)Nc3ccccc3)cc2-c2ccnc3ccccc23)n1 | 135 | 
S=P(N1CC1)(N1CC1)N1CC1 | 115 | 
CN(C)Cc1ccc(-c2nc3cccc4c3n2CCNC4=O)cc1 | 88.8 | 
COc1cc[nH]c2ncc(C(=O)C(=O)N3CCN(C(=O)c4ccccc4)C[C@H]3C)c1-2 | 134 | 
Cc1cccc(-c2[nH]c(C(C)(C)C)nc2-c2ccc3c(c2)OCO3)n1 | 118 | 
CC(C(=O)O)c1ccc(-c2ccccc2)c(F)c1 (stereo unspecified) | 110 | 
COc1cc([C@@H]2c3cc4c(cc3[C@@H](O)C3COC(=O)C32)OCO4)cc(OC)c1O (stereo partly specified) | 117 | 
N[C@@H](Cc1ccc(O)c(O)c1)C(=O)O | 133 | 

SMILES | viability (top concentration 46.1 µM) | further results
OCc1ccccc1O[C@@H]1O[C@H](CO)[C@@H](O)[C@H](O)[C@H]1O | 151 | 
Nc1ccc([S+](=O)([O-])Nc2ccccn2)cc1 | 115 | 
CCCCCC[C@H]1C(=O)O[C@H](C)[C@H](NC(=O)c2cccc(NC=O)c2O)C(=O)O[C@@H](C)[C@@H]1OC(=O)CC(C)C | 97.1 | 
Cc1cc(/C=c2/sc3nc4ccccc4n3c2=O)c(C)n1-c1ccccc1 | 106 | 
N=C1N[C@H]2[C@H](CS[C@H]2CCCCC(=O)O)N1 |  | viability (top concentration 23 µM): 134
CN1C(=O)C(=C/2N(C(=O)N(C3CC3)C(=O)C2=C1/NC4=CC=C(I)C=C4F)C5=CC=CC(=C5)NC(C)=O)\C | 87.7 | 
CN1\N=N/C2=C(N=C[N]2C1=O)C(N)=O | 121 | 
Oc1ccc(-c2nc(-c3ccncc3)c(-c3ccc(F)cc3)[nH]2)cc1 | 102 | 
Cc1cc(C(=O)N2CCN(c3cccc(Cl)c3)CC2)n(-c2ccccc2)n1 | 101 | 
Cn1cc(-c2ccc3nnc(Sc4ccc5ncccc5c4)n3n2)cn1 | 108 | 
COCCCOc1cc(C[C@@H](C[C@H](N)[C@@H](O)C[C@H](C(=O)NCC(C)(C)C(N)=O)C(C)C)C(C)C)ccc1OC | 130 | 
COc1cccc(OC)c1-c1cc(C(=O)NC2(C(=O)O)C3CC4CC(C3)CC2C4)nn1-c1ccnc2cc(Cl)ccc12 (stereo unspecified) | 124 | 
NC(=O)c1cccc2cn(-c3ccc([C@@H]4CCCNC4)cc3)nc12 | 98.4 | 
Cc1cccc(C)c1NC(=O)CN1CCCC1=O | 106 | 
CN[C@H]1[C@H](O[C@@H]2[C@H](O[C@@H]3[C@@H](O)[C@@H](O)[C@@H](NC(=N)N)[C@@H](O)[C@H]3NC(=N)N)O[C@H](C)[C@@]2(O)C=O)O[C@@H](CO)[C@@H](O)[C@H]1O |  | viability (top concentration 13.4 µM): 114
CC1(C)NC(=O)N(c2ccc([N+](=O)[O-])c(C(F)(F)F)c2)C1=O | 75.8 | 
Cc1cn([C@H]2C=C[C@@H](CO)O2)c(=O)[nH]c1=O |  | viability (top concentration 92.2 µM): 92.2
CN(Cc1cc(Br)cc(Br)c1N)C1CCCCC1 | 122 | 
CCN1C[C@H](C)[N]2C(=C(O)C3=C2\C(=N/N(CC4=CC=C(F)C(=C4)Cl)C3=O)C(=O)NC)C1=O | 123 | 
CC(C)OC(=O)CCC/C=C\C[C@@H]1[C@@H](/C=C/[C@@H](O)COc2cccc(C(F)(F)F)c2)[C@H](O)C[C@@H]1O | 118 | 
CCNC(=O)c1cc2c(-c3cc(OCCN4CCCC4)c(Cl)cc3Cl)nc(N)nc2s1 | 58.2 | 

SMILES | viability (top concentration 46.1 µM) | further results
Clc1ccc(C(Cn2ccnc2)OCc2ccc(Sc3ccccc3)cc2)c(Cl)c1 (stereo unspecified) | 118 | 
O=C(Nc1cccc(Br)c1)c1cccc([S+](=O)([O-])N2CCCCCC2)c1 | 111 | 
CCC1(c2ccc(N)cc2)CCC(=O)NC1=O (stereo unspecified) | 93.1 | 
COc1ccc(-c2ccc3cc(C(=O)O)ccc3c2)cc1C12CC3CC(CC(C3)C1)C2 | 112 | 
COC(=O)C[C@](O)(CCCC(C)(C)O)C(=O)O[C@@H]1C(OC)=CC23CCCN2CCc2cc4c(cc2[C@H]13)OCO4 (stereo partly specified) | 140 | 
COc1ccc2c(c1)CN(C)CC2c1ccc(Cl)c(Cl)c1 (stereo unspecified) | 129 | 
CC(C)(C)OC(=O)CN(Cc1ccc(Cl)cc1)Cc1ccc([N+](=O)[O-])s1 | 97.7 | 
CC(C)C[C@H](CN)CC(=O)O | 117 | 
CCCC1=N[N](C)C2=C1\N=C(/NC2=O)C3=CC(=CC=C3OCC)[S+]([O-])(=O)N4CCN(C)CC4 | 74.6 | 
O=C(CCN1CCN(C(=O)OCc2cc(Cl)cc(Cl)c2)CC1)c1ccc2[nH]c(=O)oc2c1 | 109 | 
CCOC(=O)\C1=C\[C@@H](OC(CC)CC)[C@H](NC(C)=O)[C@@H](N)C1 | 123 | 
CN(C)C(=O)c1ccc([S+](=O)([O-])c2ccc(NC(=O)[C@@](C)(O)C(F)(F)F)c(Cl)c2)cc1 | 113 | 
C[C@]1(CO)CN(c2cc(C(=O)Nc3ccc4c(c3)-c3c(c(C(N)=O)nn3-c3ccc(F)cc3)CC4)c(Cl)cn2)C[C@@]1(C)CO | 64.7 | 
CCCC[N+]1(C)[C@@H]2CC(OC(=O)[C@H](CO)c3ccccc3)C[C@H]1[C@@H]1O[C@@H]12 (stereo partly specified) | 114 | 
COc1nc(-c2ccc3c(c2)OCO3)n(-c2ccc(NC(=O)CSc3ccccc3)cc2)n1 | 101 | 
O=C(Nc1cc2cc[nH]c2cn1)c1ccccc1 | 55.2 | 
CN(C)CC(C)(C)CNc1nn2c(-c3ccccc3)nnc2cc1C1CCC1 | 108 | 
CNNCc1ccc(C(=O)NC(C)C)cc1 | 149 | 
CC(C)(N)C(=O)N[C@H](COCc1ccccc1)C(=O)N1CCC2(CC1)CN([S+](C)(=O)[O-])c1ccccc12 | 103 | 
Cn1c(=O)n(-c2ccc(C(C)(C)C#N)cc2)c2c3cc(-c4cnc5ccccc5c4)ccc3ncc21 | 73.3 | 
CNc1nc(-c2ccc3c(N)n[nH]c3c2)cc(N2C[C@@H](C(=O)NC3CCCCC3)CC[C@H]2C)n1 | 87.8 | 

SMILES | viability (top concentration 46.1 µM) | further results
Cc1ccccc1C(C(=O)NC1CCCCC1)N(C(=O)Cn1ccnc1C)c1cccc(F)c1 (stereo unspecified) | 120 | 
COc1cc2c(cc1OC)CN(CCc1ccc(NC(=O)c3cccc4c(=O)c5cccc(OC)c5[nH]c34)cc1)CC2 | 132 | 
Cn1cnc(-c2cc3nccc(Oc4ccc(NC(=S)NC(=O)Cc5ccccc5)cc4F)c3s2)c1 | 96.8 | 
COc1cc(C)c(Sc2cnc(NC(=O)c3ccc(CNC(C)C(C)(C)C)cc3)s2)cc1C(=O)N1CCN(C(C)=O)CC1 (stereo unspecified) | 71.7 | 
N=C(N)Nc1ccc(C(=O)Oc2ccc3cc(C(=N)N)ccc3c2)cc1 | 86.1 | 
CC(=O)N[C@H]1[C@H](O[C@@H]2c3ccc(c(Cl)c3)Oc3cc4cc(c3O[C@@H]3O[C@H](CO)[C@@H](O)[C@H](O)[C@H]3NC(=O)CCCCCCCC(C)C)Oc3ccc(cc3Cl)C[C@H]3NC(=O)[C@H](N)c5ccc(O)c(c5)Oc5cc(O)cc(c5)[C@H](NC3=O)C(=O)N[C@H]4C(=O)N[C@H]3C(=O)N[C@@H]2C(=O)N[C@@H](C(=O)O)c2cc(O)cc(O[C@H]4O[C@H](CO)[C@@H](O)[C@H](O)[C@@H]4O)c2-c2cc3ccc2O)O[C@H](CO)[C@@H](O)[C@@H]1O | 121 | 
N#Cc1c(C2CCNCC2)cc(-c2c(O)cccc2OCC2CC2)nc1N | 103 | 
CN(C)CC/C=C1/c2ccccc2COc2ccc(CC(=O)O)cc21 | 100 | 
CC(C)(C)[C@]1(O)C[C@@H]2OC(=O)C[C@@]23C(=O)O[C@@H]2OC(=O)[C@H](O)C213 (stereo partly specified) | 99.4 | 
C[C@H]1CN(C[C@@H](C)N1)C2=C(F)C3=C(C(=C2F)N)C(=O)\C(=C/N3C4CC4)C(O)=O |  | viability (top concentration 23 µM): 133
Nc1ncnc2c1ncn2[C@@H]1O[C@H](CO)C[C@H]1O | 97.3 | 
C[C@H]1COC/2=C1/C(=O)C(=O)C3=C4CCCC(C)(C)C4=CC=C23 | 137 | 
CCN1CCCC1CNC(=O)c1cc(S(=O)(=O)CC)c(N)cc1OC (stereo unspecified) | 119 | 
O=C(c1ccc(F)cc1)C1CCN(CCn2c(=O)[nH]c3ccccc3c2=O)CC1 | 110 | 
Nc1ncnc2nc(-c3ccc(N4CCOCC4)nc3)cc(-c3cccc(Br)c3)c12 | 110 | 
CC(C)(Oc1ccc(C2CC2(Cl)Cl)cc1)C(=O)O (stereo unspecified) |  | viability (top concentration 92.2 µM): 101
CC(C)NCC(O)c1ccc(O)c(O)c1 (stereo unspecified) | 127 | 
Nc1nc(N)nc(-c2cc(Cl)ccc2Cl)n1.O=C(O)/C=C\C(=O)O | 112 | 
